Reference: the supplement of paper PMC10307832

How the values were obtained:
Test in all cases: relative viability (nuclei count vs DMSO), 5 days (fraction); higher = more cells survive
NCI-H1915 = system: NCI-H1915
Summary of the method: (§1)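 Relative viability divides the nuclei count in treated wells by that in vehicle wells. Lung cancer cell lines were seeded in 1536-well plates, dosed by pin tool the next day, and fixed and stained after 5 days in one step with final 0.05% Triton X-100, 1% formaldehyde and 1 ug/ml Hoechst. Dosing was a single drug or a fixed anchor-drug dose plus five library-drug doses (not always all listed) in √10 steps, and values are medians of duplicate plates imaged at 4×.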

NCI-H1563 = system: NCI-H1563
Summary of the method: as §1

SW 900 = system: SW 900
Summary of the method: as §1

NCI-H1755 = system: NCI-H1755
Summary of the method: as §1

NCI-H596 = system: NCI-H596
Summary of the method: as §1

LCLC-103H = system: LCLC-103H
Summary of the method: as §1

RERF-LC-KJ = system: RERF-LC-KJ
Summary of the method: as §1

SK-MES-1 = system: SK-MES-1
Summary of the method: as §1

NCI-H1651 = system: NCI-H1651
Summary of the method: as §1

NCI-H441 = system: NCI-H441
Summary of the method: as §1

NCI-H460 = system: NCI-H460
Summary of the method: as §1

NCI-H661 = system: NCI-H661
Summary of the method: as §1

NCI-H322M = system: NCI-H322M
Summary of the method: as §1

PC-14 = system: PC-14
Summary of the method: as §1

NCI-H520 = system: NCI-H520
Summary of the method: as §1

NCI-H3122 = system: NCI-H3122
Summary of the method: as §1

NCI-H650 = system: NCI-H650
Summary of the method: as §1

NCI-H2170 = system: NCI-H2170
Summary of the method: as §1

NCI-H2347 = system: NCI-H2347
Summary of the method: as §1

NCI-H727 = system: NCI-H727
Summary of the method: as §1

NCI-H1355 = system: NCI-H1355
Summary of the method: as §1

LXF-289 = system: LXF-289
Summary of the method: as §1

COc1cc(N2CCC(C(N)=O)CC2)ccc1Nc1nc(N)c(Cl)c(Nc2ccccc2S(=O)(=O)C(C)C)n1 [HG-5-88-01] + COc1cc2c(Oc3ccc(NC(=O)C4(C(=O)Nc5ccc(F)cc5)CC4)cc3F)ccnc2cc1OCCCN1CCOCC1 [Foretinib] (partner 0.25 µM)
relative viability (NCI-H1915; first compound 0.04 µM): 1.22
relative viability (NCI-H1915; first compound 0.1265 µM): 1.22
relative viability (NCI-H1915; first compound 0.4 µM): 1.04
relative viability (NCI-H1915; first compound 1.265 µM): 1.2
relative viability (NCI-H1915; first compound 4 µM): 1.04
relative viability (NCI-H1563; first compound 0.04 µM): 1
relative viability (NCI-H1563; first compound 0.1265 µM): 1.01
relative viability (NCI-H1563; first compound 0.4 µM): 0.963
relative viability (NCI-H1563; first compound 1.265 µM): 0.866
relative viability (NCI-H1563; first compound 4 µM): 0.833
relative viability (SW 900; first compound 0.04 µM): 0.996
relative viability (SW 900; first compound 0.1265 µM): 1.08
relative viability (SW 900; first compound 0.4 µM): 0.926
relative viability (SW 900; first compound 1.265 µM): 0.918
relative viability (SW 900; first compound 4 µM): 0.493
relative viability (NCI-H1755; first compound 0.04 µM): 0.876
relative viability (NCI-H1755; first compound 0.1265 µM): 0.895
relative viability (NCI-H1755; first compound 0.4 µM): 0.863
relative viability (NCI-H1755; first compound 1.265 µM): 0.858
relative viability (NCI-H1755; first compound 4 µM): 0.873
relative viability (NCI-H596; first compound 0.04 µM): 0.956
relative viability (NCI-H596; first compound 0.1265 µM): 0.871
relative viability (NCI-H596; first compound 0.4 µM): 0.801
relative viability (NCI-H596; first compound 1.265 µM): 0.895
relative viability (NCI-H596; first compound 4 µM): 0.487
relative viability (LCLC-103H; first compound 0.04 µM): 0.767
relative viability (LCLC-103H; first compound 0.1265 µM): 0.745
relative viability (LCLC-103H; first compound 0.4 µM): 0.745
relative viability (LCLC-103H; first compound 1.265 µM): 0.757
relative viability (LCLC-103H; first compound 4 µM): 0.75
relative viability (RERF-LC-KJ; first compound 0.04 µM): 0.869
relative viability (RERF-LC-KJ; first compound 0.1265 µM): 0.849
relative viability (RERF-LC-KJ; first compound 0.4 µM): 0.839
relative viability (RERF-LC-KJ; first compound 1.265 µM): 0.836
relative viability (RERF-LC-KJ; first compound 4 µM): 0.846
relative viability (SK-MES-1; first compound 0.04 µM): 0.875
relative viability (SK-MES-1; first compound 0.1265 µM): 0.808
relative viability (SK-MES-1; first compound 0.4 µM): 0.827
relative viability (SK-MES-1; first compound 1.265 µM): 0.684
relative viability (SK-MES-1; first compound 4 µM): 0.996
relative viability (NCI-H1651; first compound 0.04 µM): 0.793
relative viability (NCI-H1651; first compound 0.1265 µM): 0.922
relative viability (NCI-H1651; first compound 0.4 µM): 0.998
relative viability (NCI-H1651; first compound 1.265 µM): 0.762
relative viability (NCI-H1651; first compound 4 µM): 1.02
relative viability (NCI-H441; first compound 0.04 µM): 0.889
relative viability (NCI-H441; first compound 0.1265 µM): 1.06
relative viability (NCI-H441; first compound 0.4 µM): 1
relative viability (NCI-H441; first compound 1.265 µM): 0.771
relative viability (NCI-H441; first compound 4 µM): 0.839
relative viability (NCI-H460; first compound 0.04 µM): 1.03
relative viability (NCI-H460; first compound 0.1265 µM): 1.01
relative viability (NCI-H460; first compound 0.4 µM): 0.929
relative viability (NCI-H460; first compound 1.265 µM): 0.959
relative viability (NCI-H460; first compound 4 µM): 0.926
relative viability (NCI-H661; first compound 0.04 µM): 1.01
relative viability (NCI-H661; first compound 0.1265 µM): 1.05
relative viability (NCI-H661; first compound 0.4 µM): 1.1
relative viability (NCI-H661; first compound 1.265 µM): 1.03
relative viability (NCI-H661; first compound 4 µM): 1.09
relative viability (NCI-H322M; first compound 0.04 µM): 0.927
relative viability (NCI-H322M; first compound 0.1265 µM): 0.782
relative viability (NCI-H322M; first compound 0.4 µM): 0.635
relative viability (NCI-H322M; first compound 4 µM): 0.759
relative viability (PC-14; first compound 0.04 µM): 0.974
relative viability (PC-14; first compound 0.1265 µM): 0.951
relative viability (PC-14; first compound 0.4 µM): 0.806
relative viability (PC-14; first compound 1.265 µM): 0.804
relative viability (PC-14; first compound 4 µM): 0.699
relative viability (NCI-H520; first compound 0.04 µM): 0.705
relative viability (NCI-H520; first compound 0.1265 µM): 0.942
relative viability (NCI-H520; first compound 0.4 µM): 0.629
relative viability (NCI-H520; first compound 1.265 µM): 0.828
relative viability (NCI-H520; first compound 4 µM): 0.76
relative viability (NCI-H3122; first compound 0.04 µM): 0.891
relative viability (NCI-H3122; first compound 0.1265 µM): 0.684
relative viability (NCI-H3122; first compound 0.4 µM): 0.205
relative viability (NCI-H3122; first compound 1.265 µM): 0.169
relative viability (NCI-H3122; first compound 4 µM): 0.15
relative viability (NCI-H650; first compound 0.04 µM): 1.1
relative viability (NCI-H650; first compound 0.1265 µM): 1.18
relative viability (NCI-H650; first compound 0.4 µM): 0.949
relative viability (NCI-H650; first compound 1.265 µM): 0.602
relative viability (NCI-H650; first compound 4 µM): 0.719
relative viability (NCI-H2170; first compound 0.04 µM): 1.01
relative viability (NCI-H2170; first compound 0.1265 µM): 0.973
relative viability (NCI-H2170; first compound 0.4 µM): 0.967
relative viability (NCI-H2170; first compound 1.265 µM): 0.947
relative viability (NCI-H2170; first compound 4 µM): 1.12
relative viability (NCI-H2347; first compound 0.04 µM): 0.845
relative viability (NCI-H2347; first compound 0.1265 µM): 0.974
relative viability (NCI-H2347; first compound 0.4 µM): 1.03
relative viability (NCI-H2347; first compound 1.265 µM): 0.65
relative viability (NCI-H2347; first compound 4 µM): 0.452
relative viability (NCI-H727; first compound 0.04 µM): 1.07
relative viability (NCI-H727; first compound 0.1265 µM): 0.843
relative viability (NCI-H727; first compound 0.4 µM): 0.811
relative viability (NCI-H727; first compound 1.265 µM): 0.55
relative viability (NCI-H727; first compound 4 µM): 0.581
relative viability (NCI-H1355; first compound 0.04 µM): 1.01
relative viability (NCI-H1355; first compound 0.1265 µM): 1.05
relative viability (NCI-H1355; first compound 0.4 µM): 0.929
relative viability (NCI-H1355; first compound 1.265 µM): 0.96
relative viability (NCI-H1355; first compound 4 µM): 0.696
relative viability (LXF-289; first compound 0.04 µM): 1.04
relative viability (LXF-289; first compound 0.1265 µM): 0.937
relative viability (LXF-289; first compound 0.4 µM): 0.977
relative viability (LXF-289; first compound 1.265 µM): 0.977
relative viability (LXF-289; first compound 4 µM): 1.05
